Values of other authors, collected in US9676782B2, “Substituted pyrazolo[1,5-a]pyrazines as negative allosteric modulators of metabotropic glutamate receptor 3” (Vanderbilt University, priority 2014, dated 2017).

Experiments:
[1] = test system: cultured astrocytes; conditions: cited from earlier work
[2] = test system: Aβ-induced neurodegeneration; conditions: cited from earlier work

With `N[C@@]1(C(=O)O)CO[C@H]2[C@H](C(=O)O)[C@H]21` [LY379268] as the compound, how does the sAPPα release [1] read?
The sAPPα release was “incremented sAPPα release”.

What about the “effect on Aβ-induced neurodegeneration” value [2] of the same compound?
Its value is “neuroprotective activity”.
